From patent US8765736B2, “Benzenesulfonamide compounds and the use thereof” (Purdue Pharma L.P., priority 2007, dated 2014)
pIC50: −log10 of the molar value.

Key:
[1] = molecular target: T1, N-type calcium channel (NTCC) (Homo sapiens, UniProt Q00975); assay: FLIPR calcium mobilization assay for N-type calcium channel; format: cell-based; settings: calcium mobilization in vitro assay; differentiated IMR32 cells, 5 μM nitrendipine, 90 mM KCl
T1 construct: endogenous in cells; host or cells: IMR32 cells (ATCC), differentiated with dibutyryl cAMP and bromodeoxyuridine
Protocol: Cell maintenance and differentiation. Unless noted otherwise, cell culture reagents were purchased from Mediatech of Herndon, Md. IMR32 cells (American Type Culture Collection, ATCC, Manassas, Va.) were routinely cultured in growth medium consisting of minimum essential medium containing 10% fetal bovine serum (FBS, Hyclone, Logan, Utah), 100 U/mL penicillin, 100 μg/mL streptomycin, 2 mM L-glutamine, 1 mM sodium pyruvate, and 1×MEM non-essential amino acids. 80-90% confluent flasks of cells were differentiated using the following differentiation medium: Growth medium plus 1 mM dibutyryl cyclic AMP (Sigma, St. Louis, Mo.), and 2.5 μM bromodeoxyuridine (Sigma). Cells were differentiated for 8 days by replacing differentiation medium every 2-3 days.
FLIPR Calcium Mobilization Assay for N-type Calcium Channel. One day prior to performing this assay, differentiated IMR32 cells were treated with 1× CellStripper, and seeded on poly-D-lysine-coated 96-well clear-bottom black plates (Becton Dickinson, Franklin Lakes, N.J.) at 200,000 cells/well. On the day of the assay, the cell plates were washed with IMR32 buffer (127 mM NaCl, 1 mM KCl, 2 mM MgCl2, 700 μM NaH2PO4, 5 mM CaCl2, 5 mM NaHCO3, 8 mM HEPES, 10 mM glucose, pH 7.4), then pre-stimulated with KCl and loaded as follows: 0.05 mL of IMR32 buffer, 0.05 mL of each compound tested diluted in IMR32 buffer containing 20 μM nitrendipine (Sigma), and 0.1 mL KCl dissolved in IMR32 buffer, plus Fluo-4 were added (3 μM final concentration, Molecular Probes, Eugene, Oreg.). Final test compound concentrations ranged from about 846 pM to about 17 μM, final nitrendipine concentration was 5 μM, and final KCl concentration was 90 mM. After 1 hour, the cells were washed twice with 0.05 mL of each compound tested in nitrendipine-containing IMR32 buffer (no KCl or Fluo-4), and then replaced with 0.1 mL of each compound tested in nitrendipine-containing IMR32 buffer. Plates were then transferred to a Fluorimetric Imaging Plate Reader (FLIPR^96, Molecular Devices, Inc., Sunnyvale, Calif.) for assay. The FLIPR measured basal Fluo-4 fluorescence for 315 seconds (i.e., 5 minutes and 15 seconds), then added 0.1 mL KCl agonist dissolved in IMR32 buffer and measured fluorescence for another 45 seconds. Final test compound concentrations on the cells after FLIPR read ranged from about 846 pM to about 17 μM, final nitrendipine concentration was 5 μM, and final KCl concentration was 90 mM. Data were collected over the entire time course and analyzed using Excel, Graph Pad Prism (version 3.02, Graph Pad, San Diego, Calif.), or an in-house non-linear regression analysis software.

[2] = molecular target: T2, recombinant rat L-type calcium channel (LTCC) subunits (α1c, α2δ, and β1) (Rattus norvegicus, UniProt P22002); assay: FLIPR calcium mobilization assay for L-type calcium channel; format: cell-based; settings: calcium mobilization in vitro assay; HEK293 cells stably expressing rat LTCC subunits, 90 mM KCl
T2 construct: expressed in transfected cells; α1c in pcDNA6.2DEST, β1 in pcDNA3.2DEST, α2δ in pcDNA3.1-Zeo
Protocol: Recombinant human embryonal kidney cells (HEK293, ATCC) stably transfected with either N-type calcium channel (NTCC) subunits (α1b (SEQ ID NOs: 13 to 15), α2δ (SEQ ID Nos: 16, 17), and β3 (SEQ ID NOs:18 to 20)) or L-type calcium channel (LTCC) subunits (α1c (SEQ ID NOs:21, 22), α2δ, and β1 (SEQ ID NOs:23 to 25)) were routinely cultured in growth medium consisting of Dulbecco's Modified Eagles Medium containing 10% FBS, 100 U/mL penicillin, 100 μg/mL streptomycin, 4 mM L-glutamine, 500 μg/mL geneticin (G418), 20 μg/mL Blasticidin S (InVivogen, San Diego, Calif.) and 500 μg/mL zeocin (InVivogen).
FLIPR Calcium Mobilization Assay for L-type Calcium Channel. One day prior to performing this assay, HEK293 cells stably expressing recombinant rat L-type calcium channel (LTCC) subunits (α1c, α2δ, and β1) were trypsinized, then seeded on poly-D-lysine-coated 96-well clear-bottom black plates (Becton Dickinson, Franklin Lakes, N.J.) at 75,000 cells/well. On the day of the assay, the plates were washed with LTCC wash buffer (127 mM NaCl, 2 mM MgCl2, 700 μM NaH2PO4, 5 mM CaCl2, 5 mM NaHCO3, 8 mM HEPES, 10 mM glucose, pH 7.4), then loaded with 0.1 mL of LTCC wash buffer containing Fluo-4 (3 μM final concentration, Molecular Probes, Eugene, Oreg.). After 1 hour, the cells were washed with 0.1 mL LTCC wash buffer and resuspended in 0.05 mL LTCC assay buffer (same composition as LTCC wash buffer). Plates were then transferred to a FLIPR^96 for assay. The FLIPR measured basal Fluo-4 fluorescence for 15 seconds, then added 0.05 mL of each compound tested diluted in LTCC assay buffer at final concentrations ranging from about 846 pM to about […]. Fluo-4 fluorescence was then measured for 5 minutes. 0.1 mL KCl agonist dissolved in LTCC assay buffer was then added to the cells to produce a final concentration of 90 mM KCl, and fluorescence was measured for another 45 seconds. Data were collected over the entire time course and analyzed using Excel, Graph Pad Prism, or an in-house regression analysis software.
L-type Recombinant Cell Line Development. L-type calcium channel expressing HEK-293 cells were created in two stages. Stage 1 was created as follows. The rat α1c, and β1 cDNA expression constructs (2.5 μg each) were co-transfected into human embryonic kidney (HEK-293) cells by Lipofectamine Plus reagent (Invitrogen), as per manufacturer's instructions. 24 hours later, cells were split in limiting dilution into multiple 96-well plates in selection media containing 20 μg/mL blasticidin and 500 μg/mL geneticin, and incubated for 3 weeks at 37° C., 5% CO2, 95% humidity. Plates containing ≦1 clone per well were cultured until wells positive for single clones were confluent. Individual clones were then arrayed into columns of a destination 96-well plate, and partly split into 6-well plates for culture maintenance. Array plates were washed once with LTCC wash (or assay) buffer and cells loaded for 1 hour with 0.1 mL of LTCC buffer containing Fluo-4 (3 μM final concentration, Molecular Probes). Then they were washed twice with 0.1 mL of LTCC buffer, and replaced with 0.1 mL LTCC buffer. Plates were then transferred to a FLIPR^96 for assay. The FLIPR measured basal Fluo-4 fluorescence for 315 seconds, then added 0.1 mL KCl agonist dissolved in LTCC buffer and measured fluorescence for another 45 seconds. Final KCl concentration was 90 mM. Data were collected over the entire time course and analyzed using Excel, Graph Pad Prism, or Activity Base software. The clone with the greatest signal-to-noise ratio, best stability of response with passage number, and best adhesion to PDL precoated plates (Becton Dickinson) was expanded, characterized and used for stage 2 cell line development.
Stage 2 of L-type cell line development was carried out as follows. The rat α2δ cDNA expression construct (5 μg each) was transfected into the stage 1 L-type clonal cell line by Lipofectamine Plus reagent (Invitrogen), as per manufacturer's instructions. […]

T1 sequence (Q00975 whole entry): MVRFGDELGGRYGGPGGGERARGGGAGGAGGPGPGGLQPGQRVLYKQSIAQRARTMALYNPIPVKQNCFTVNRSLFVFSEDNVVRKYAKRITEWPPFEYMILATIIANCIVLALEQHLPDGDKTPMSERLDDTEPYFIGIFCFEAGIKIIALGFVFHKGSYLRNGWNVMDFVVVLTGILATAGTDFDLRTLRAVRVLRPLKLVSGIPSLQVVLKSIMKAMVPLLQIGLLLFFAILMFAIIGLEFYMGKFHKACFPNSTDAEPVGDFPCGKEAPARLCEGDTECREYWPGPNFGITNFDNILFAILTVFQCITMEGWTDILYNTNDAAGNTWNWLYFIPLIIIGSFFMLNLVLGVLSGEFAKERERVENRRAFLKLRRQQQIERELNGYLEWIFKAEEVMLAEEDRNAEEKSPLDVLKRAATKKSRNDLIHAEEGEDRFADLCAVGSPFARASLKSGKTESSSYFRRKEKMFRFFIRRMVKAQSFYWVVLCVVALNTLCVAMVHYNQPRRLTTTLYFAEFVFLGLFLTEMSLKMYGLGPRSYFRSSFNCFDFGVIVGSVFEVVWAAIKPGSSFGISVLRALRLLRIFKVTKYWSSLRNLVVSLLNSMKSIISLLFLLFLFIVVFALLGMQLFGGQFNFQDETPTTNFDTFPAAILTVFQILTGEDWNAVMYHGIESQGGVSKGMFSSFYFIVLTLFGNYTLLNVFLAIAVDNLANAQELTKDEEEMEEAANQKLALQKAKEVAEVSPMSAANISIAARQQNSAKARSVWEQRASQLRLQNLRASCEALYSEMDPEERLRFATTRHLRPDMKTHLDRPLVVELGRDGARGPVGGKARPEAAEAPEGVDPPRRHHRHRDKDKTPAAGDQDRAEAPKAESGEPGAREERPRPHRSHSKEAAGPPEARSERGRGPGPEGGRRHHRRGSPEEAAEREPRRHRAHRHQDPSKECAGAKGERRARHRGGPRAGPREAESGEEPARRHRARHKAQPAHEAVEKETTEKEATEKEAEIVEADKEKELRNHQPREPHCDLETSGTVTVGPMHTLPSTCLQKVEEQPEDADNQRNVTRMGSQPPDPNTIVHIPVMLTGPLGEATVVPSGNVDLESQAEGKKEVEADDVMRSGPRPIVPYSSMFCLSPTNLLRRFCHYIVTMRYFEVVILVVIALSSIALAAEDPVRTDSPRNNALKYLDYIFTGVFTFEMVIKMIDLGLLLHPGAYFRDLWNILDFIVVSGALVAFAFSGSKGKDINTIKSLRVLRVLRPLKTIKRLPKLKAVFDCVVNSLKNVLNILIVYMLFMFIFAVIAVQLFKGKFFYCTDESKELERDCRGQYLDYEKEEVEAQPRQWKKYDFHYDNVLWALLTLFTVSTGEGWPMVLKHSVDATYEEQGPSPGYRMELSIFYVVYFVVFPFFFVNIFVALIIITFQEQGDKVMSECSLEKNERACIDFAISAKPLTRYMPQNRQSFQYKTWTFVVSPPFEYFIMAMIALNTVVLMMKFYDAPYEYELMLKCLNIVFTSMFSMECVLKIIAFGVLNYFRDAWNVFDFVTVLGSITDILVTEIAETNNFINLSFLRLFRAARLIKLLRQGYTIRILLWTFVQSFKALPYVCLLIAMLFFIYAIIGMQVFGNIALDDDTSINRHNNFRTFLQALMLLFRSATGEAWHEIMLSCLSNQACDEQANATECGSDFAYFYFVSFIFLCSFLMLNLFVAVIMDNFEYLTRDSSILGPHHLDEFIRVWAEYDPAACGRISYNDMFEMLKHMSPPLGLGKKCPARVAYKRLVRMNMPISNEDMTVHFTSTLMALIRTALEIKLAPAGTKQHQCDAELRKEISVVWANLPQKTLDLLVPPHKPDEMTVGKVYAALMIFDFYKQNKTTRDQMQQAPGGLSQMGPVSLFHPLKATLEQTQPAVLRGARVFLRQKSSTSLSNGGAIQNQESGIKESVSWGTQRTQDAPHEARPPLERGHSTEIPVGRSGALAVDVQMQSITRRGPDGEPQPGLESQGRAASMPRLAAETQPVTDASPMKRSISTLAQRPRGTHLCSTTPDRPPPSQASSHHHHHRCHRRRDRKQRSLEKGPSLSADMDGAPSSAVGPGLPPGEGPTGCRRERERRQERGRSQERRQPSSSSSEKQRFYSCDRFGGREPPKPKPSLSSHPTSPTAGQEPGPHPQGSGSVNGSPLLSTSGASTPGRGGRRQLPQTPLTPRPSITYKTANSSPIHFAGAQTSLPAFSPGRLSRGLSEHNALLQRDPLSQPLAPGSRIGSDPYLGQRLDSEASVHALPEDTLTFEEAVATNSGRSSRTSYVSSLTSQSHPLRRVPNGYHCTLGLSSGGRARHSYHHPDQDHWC
T1 sequence (P54289 25-956 partner limits assumed): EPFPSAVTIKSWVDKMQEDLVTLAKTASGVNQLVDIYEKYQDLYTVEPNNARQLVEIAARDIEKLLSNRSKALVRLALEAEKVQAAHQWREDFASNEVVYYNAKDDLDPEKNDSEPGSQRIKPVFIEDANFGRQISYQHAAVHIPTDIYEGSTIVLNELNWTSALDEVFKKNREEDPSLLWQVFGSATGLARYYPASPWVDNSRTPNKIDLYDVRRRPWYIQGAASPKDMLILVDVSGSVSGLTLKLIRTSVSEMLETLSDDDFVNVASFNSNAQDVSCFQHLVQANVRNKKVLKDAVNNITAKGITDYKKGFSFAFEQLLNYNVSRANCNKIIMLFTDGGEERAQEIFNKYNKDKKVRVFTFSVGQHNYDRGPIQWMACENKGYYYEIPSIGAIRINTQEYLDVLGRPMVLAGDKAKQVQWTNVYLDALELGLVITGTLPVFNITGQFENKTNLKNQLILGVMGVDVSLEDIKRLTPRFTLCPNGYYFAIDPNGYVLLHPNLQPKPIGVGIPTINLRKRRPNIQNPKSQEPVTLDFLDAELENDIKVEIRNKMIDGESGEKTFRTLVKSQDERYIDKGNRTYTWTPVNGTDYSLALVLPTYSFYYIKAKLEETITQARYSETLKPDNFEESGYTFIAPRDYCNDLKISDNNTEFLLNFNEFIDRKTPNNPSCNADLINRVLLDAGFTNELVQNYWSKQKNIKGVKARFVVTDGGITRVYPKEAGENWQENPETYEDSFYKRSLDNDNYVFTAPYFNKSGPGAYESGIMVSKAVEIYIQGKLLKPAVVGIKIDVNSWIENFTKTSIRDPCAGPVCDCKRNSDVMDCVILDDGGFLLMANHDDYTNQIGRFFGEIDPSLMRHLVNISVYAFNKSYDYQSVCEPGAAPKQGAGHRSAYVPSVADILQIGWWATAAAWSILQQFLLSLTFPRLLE
T1 sequence (P54289 957-1103 partner limits assumed): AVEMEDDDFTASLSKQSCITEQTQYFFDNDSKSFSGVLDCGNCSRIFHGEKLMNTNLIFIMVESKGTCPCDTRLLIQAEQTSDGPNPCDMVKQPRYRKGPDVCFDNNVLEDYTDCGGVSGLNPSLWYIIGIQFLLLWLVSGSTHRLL
T1 sequence (P54284 whole entry partner): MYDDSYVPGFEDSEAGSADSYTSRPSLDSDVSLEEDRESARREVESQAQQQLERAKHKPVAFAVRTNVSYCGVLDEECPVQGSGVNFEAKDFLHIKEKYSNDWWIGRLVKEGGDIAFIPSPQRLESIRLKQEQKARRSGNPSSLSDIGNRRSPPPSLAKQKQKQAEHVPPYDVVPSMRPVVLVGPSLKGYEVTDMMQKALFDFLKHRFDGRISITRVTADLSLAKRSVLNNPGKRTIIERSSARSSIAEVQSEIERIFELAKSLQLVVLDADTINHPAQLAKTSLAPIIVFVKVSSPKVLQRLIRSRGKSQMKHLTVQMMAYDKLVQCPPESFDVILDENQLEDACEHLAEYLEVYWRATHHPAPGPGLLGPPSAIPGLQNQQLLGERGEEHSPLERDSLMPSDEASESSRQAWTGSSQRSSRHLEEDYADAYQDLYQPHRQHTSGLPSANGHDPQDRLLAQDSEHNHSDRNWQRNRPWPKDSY

CCOC(=O)c1cc(F)cc(N2CCC(N(C3CC3)S(=O)(=O)c3cccc(C(F)(F)F)c3)CC2)c1 [Compound 10c, 3-{-4-[Cyclopropyl-(3-trifluoromethyl-benzenesulfonyl)amino]piperidin-1-yl}-5-fluorobenzoic acid ethyl ester]
pIC50 [1]: 5.97

CC(C(=O)Nc1ccccc1)N1CCC(N(C2CC2)S(=O)(=O)c2cccc(C(F)(F)F)c2)CC1 (centres unmarked) [Compound 27b, 2-{4-[Cyclopropyl-(3-trifluoromethyl-benzenesulfonyl)-amino]piperidin-1-yl}-N-phenyl-propionamide]
pIC50 [1]: 6.41 | pIC50 [2]: < 4.70

O=C(CN1CCC(N(C2CC2)S(=O)(=O)c2cccc(C(F)(F)F)c2)CC1)Oc1ccc(Cl)cc1 [Compound 8c, {-4-[Cyclopropyl-(3-trifluoromethyl-benzenesulfonyl)amino]piperidin-1-yl}acetic acid 4-chlorophenyl ester]
pIC50 [1]: 6.22 | pIC50 [2]: < 4.70

O=C(NCCN1CCC(N(C2CC2)S(=O)(=O)c2cccc(C(F)(F)F)c2)CC1)c1ccc(F)cc1 [Compound 14a, N-(2-{-4-[Cyclopropyl-(3-trifluoromethylbenzenesulfonyl)amino]piperidin-1-yl}ethyl)-4-fluorobenzamide]
pIC50 [1]: 6.42 | pIC50 [2]: 5.17

CC(C)(C(=O)Nc1ccc(F)cc1Cl)N1CCC(N(C2CC2)S(=O)(=O)c2cccc(C(F)(F)F)c2)CC1 [Compound 21a, N-(2-Chloro-4-fluorophenyl)-2-{-4-[cyclopropyl-(3-trifluoromethyl-benzenesulfonyl)-amino]-piperidin-1-yl}-isobutyramide]
pIC50 [1]: 5.80

CC(C)N(C1CCN(C2CCN(c3ccccc3)C2=O)CC1)S(=O)(=O)c1cccc(C(F)(F)F)c1 (centres unmarked) [Compound 27a, N-Isopropyl-N-[1-(2-oxo-1-phenyl-pyrrolidin-3-yl)-piperidin-4-yl]-3-trifluoromethyl-benzenesulfonamide]
pIC50 [1]: 6.26 | pIC50 [2]: < 4.70

COC(=O)c1ccccc1N1CCC(N(C2CC2)S(=O)(=O)c2cccc(C(F)(F)F)c2)CC1 [Compound 10a, 2-{4-[Cyclopropyl-(3-trifluoromethyl-benzenesulfonyl)amino]piperidin-1-yl}benzoic acid methyl ester]
pIC50 [1]: 6.05 | pIC50 [2]: < 4.70

CC(C)N(C1CCN(CC(=O)NC2CCOC2)CC1)S(=O)(=O)c1cccc(C(F)(F)F)c1 (centres unmarked) [Compound 31e, 2-{4-[Isopropyl-(3-trifluoromethyl-benzenesulfonyl)-amino]-piperidin-1-yl}-N-(tetrahydrofuran-3-yl)-acetamide]
pIC50 [1]: 5.49

CCOC(=O)c1ccc(N2CCC(N(C3CC3)S(=O)(=O)c3cccc(C(F)(F)F)c3)CC2)cc1 [Compound 10d, 4-{-4-[Cyclopropyl-(3-trifluoromethyl-benzenesulfonyl)amino]piperidin-1-yl}benzoic acid ethyl ester]
pIC50 [1]: 5.88

O=C(NCCN1CCC(N(C2CC2)S(=O)(=O)c2cccc(C(F)(F)F)c2)CC1)c1cc(C(F)(F)F)cc(C(F)(F)F)c1 [Compound 14b, N-(2-{4-[Cyclopropyl-(3-trifluoromethylbenzenesulfonyl)amino]piperidin-1-yl}ethyl)-3,5-bis(trifluoromethyl)phenylbenzamide]
pIC50 [1]: 5.95

CCOC(=O)C(C)N1CCC(N(C(C)C)S(=O)(=O)c2cccc(C(F)(F)F)c2)CC1 (centres unmarked) [Compound 8a, 2-[4-[Isopropyl-(3-trifluoromethyl-benzenesulfonyl)amino]piperidin-1-yl}propionic acid ethyl ester]
pIC50 [1]: 6.00

O=S(=O)(c1cccc(C(F)(F)F)c1)N(C1CC1)C1CCN(c2cc(C(F)(F)F)cc(C(F)(F)F)c2)CC1 [Compound 10e, N-[1-(3,5-Bis-(trifluoromethyl)phenyl)piperidin-1-yl]-N-cyclopropyl-3-trifluoromethylbenzenesulfonamide]
pIC50 [1]: 5.20

CC(C)N(C1CCN(CC(=O)N2CCCC2)CC1)S(=O)(=O)c1cccc(C(F)(F)F)c1 [Compound 31b, N-Isopropyl-N-[1-(2-oxo-2-pyrrolidin-1-yl-ethyl)-piperidin-4-yl]-3-trifluoromethyl-benzenesulfonamide]
pIC50 [1]: 5.79

CC(C)(C(=O)Nc1ccc(F)cc1)N1CCC(N(C2CC2)S(=O)(=O)c2cccc(C(F)(F)F)c2)CC1 [Compound 21b, 2-{-4-[Cyclopropyl-(3-trifluoromethyl-benzenesulfonyl)-amino]-piperidin-1-yl}-N-(4-fluoro-phenyl)-isobutyramide]
pIC50 [1]: 6.22 | pIC50 [2]: < 4.70

CC(C)N(C1CCN(CCC(=O)N2CCCCC2)CC1)S(=O)(=O)c1cccc(C(F)(F)F)c1 [Compound 18, N-Isopropyl-N-[1-(3-oxo-3-piperidin-1-yl-propyl)-piperidin-4-yl]-3-trifluoromethyl-benzenesulfonamide]
pIC50 [1]: 6.11 | pIC50 [2]: < 4.70

CCOC(=O)c1cccnc1N1CCC(N(C2CC2)S(=O)(=O)c2cccc(C(F)(F)F)c2)CC1 [Compound 10b, 4-[Cyclopropyl-(3-trifluoromethyl-benzenesulfonyl)amino]-3,4,5,6-tetrahydro-2H-[1,2′]-bipyridinyl-3′-carboxylic acid ethyl ester]
pIC50 [1]: 5.84
